Experimental data reported in patent US6939566B2, “Microbicidal formulations and methods to control microorganisms” (priority 1999, dated 2005).

Assays:
[1] = tested on: E. coli, Stafelococus, Bascillus, and Salmonella; test: Bactericidal efficacy of diluted disinfectants on actively growing pathogenic bacteria; assay type: cell-based; conditions: H2O2 absent; about 51 ppm complex silver
Procedure: Again, these prepared solutions were poured into dark bottles.
The above concludes the preparation of these disinfectants. However, to utilize these mixtures as bactericides, 5 ml of each bottled solution was added to 45 ml of double distilled-de-ionized water (10% by volume). […] The upper and lower concentration limits may be different if desired, depending on the nature of the desired application. For the samples where H2O2 is present, the active concentration of the disinfectant should be around 56,000 ppm.
The diluted solutions were then tested on several kinds of actively growing pathogenic bacteria to ascertain their effectiveness. Different strains of pathogenic bacteria were employed for the testing; namely, E. coli, Stafelococus, Bascillus, and Salmonella.

[2] = tested on: freshly-cut roses; test: Preservation of cut flowers and plants; conditions: examined after 15 days; silver approximately 166 ppb in tap water for the invention's sample
Procedure: A silver concentration of approximately 166 ppb was used. Both inoculated and controlled samples were tested in which freshly-cut roses were placed in the prepared solution and tap water, respectively. Cut roses were chosen because they are very susceptible to slight changes in the surrounding area and are equally susceptible to chemicals. For comparative purposes, other preservative type chemicals were also tested; namely, silver thiosulfate and hypochlorite.
In the case of the two other chemicals used, it was observed that there was discoloration of the petals, loss of leaves and petals, and dehydration.

Substance	order of potency among the amino acid complexes [1]	condition of cut roses [2]
Silver-Arginine Complex [Example 3]	most potency	–
Silver-glutamic Acid Complex [Example 1]	–	no black or brown burns on the petals and there were no wilted flowers, and the stems and leaves were in good condition
